Paper PMC12339561, “Discovery of a selective dual-specificity tyrosine phosphorylation-regulated kinase 1B inhibitor with anti-adipogenic and anti-diabetic activities” (Frontiers in Pharmacology, 2025)

Target: T1, DYRK1B (dual-specificity tyrosine phosphorylation-regulated kinase 1B) (Homo sapiens, UniProt Q9Y463)
T1 construct: Human DYRK1B recombinant protein (#PV4649)
Assay: LanthaScreen Eu Kinase Binding Assay (TR-FRET displacement of kinase tracer […]), recombinant protein

T1 sequence (Q9Y463 whole entry): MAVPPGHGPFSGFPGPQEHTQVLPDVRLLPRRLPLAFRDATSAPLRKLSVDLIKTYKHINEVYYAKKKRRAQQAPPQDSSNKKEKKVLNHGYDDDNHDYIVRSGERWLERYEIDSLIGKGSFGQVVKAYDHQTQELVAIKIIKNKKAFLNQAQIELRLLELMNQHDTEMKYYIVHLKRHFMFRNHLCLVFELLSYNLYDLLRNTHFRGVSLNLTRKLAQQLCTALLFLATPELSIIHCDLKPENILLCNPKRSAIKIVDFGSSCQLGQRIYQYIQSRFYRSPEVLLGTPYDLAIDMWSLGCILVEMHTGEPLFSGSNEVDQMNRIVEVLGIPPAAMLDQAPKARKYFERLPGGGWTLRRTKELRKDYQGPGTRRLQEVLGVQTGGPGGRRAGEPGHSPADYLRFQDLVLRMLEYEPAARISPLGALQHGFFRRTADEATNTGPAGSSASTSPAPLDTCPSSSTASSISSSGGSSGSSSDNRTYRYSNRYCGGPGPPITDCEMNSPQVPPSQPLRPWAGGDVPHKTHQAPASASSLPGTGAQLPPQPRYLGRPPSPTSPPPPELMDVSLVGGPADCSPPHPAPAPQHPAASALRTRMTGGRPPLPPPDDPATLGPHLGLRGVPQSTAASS

IC50: 18 nM
SMILES: COc1ccc(-c2n[nH]c3ncc(-c4ccc(NC(C)=O)cc4)cc23)cc1 [KS-40070, N-(4-(3-(4-methoxyphenyl)-1H-pyrazolo [3,4-b]pyridin-5-yl)phenyl)acetamide]
